{"source": "patent US8673376B2", "about": "“Polyphenol-containing composition for oral administration or external use and use of same” (Biotherapy Development Research Center Co., Ltd., priority 2009, dated 2014)", "key": {"[1]": {"tested_on": "Human melanoma cells (HMVII)", "test": "Melanin production inhibition test, HMVII cells", "assay_type": "cell-based", "conditions": "control = 100", "excerpt": "Human melanoma cells (HMVII) were the third or higher passage cultured in a culture solution of a Ham F-12 culture medium (manufactured by Nissui Pharmaceutical Co., Ltd.) containing 10% FBS, mixed with 0.5% penicillin-streptomycin (manufactured by Gibco). The test samples were the freeze-dried products of the hot water extract obtained in Preparation 1 (1) and the fractions eluted with 10% and 50% aqueous ethanol solutions obtained in Preparation 1 (2). […] The culture medium was removed, washed with PBS, and then 100 μL of a trypsin EDTA solution was added thereby removing the cells from the plate, and 900 μL of 1N sodium hydroxide aqueous solution was added. The cells were allowed to stand at room temperature for 20 to 24 hours thereby causing cytolysis, and then the melanin content was measured at an absorbance of 475 nm."}, "tyrosinase": {"tested_on": "tyrosinase", "test": "Tyrosinase activity inhibition test", "assay_type": "biochemical", "conditions": "DOPA substrate, control = 100", "experimental": "(§1) The test samples were the freeze-dried products of the hot water extract obtained in Preparation 1 (1) and the fractions eluted with 10% and 50% aqueous ethanol solutions obtained in Preparation 1 (2).\n0.5 mL of substrate (DOPA) solution adjusted to the final concentration of 0.03% with a phosphoric acid buffer was mixed with 0.5 mL of test sample solution prepared using a phosphoric acid buffer, and cooled on ice. 0.5 mL of tyrosinase solution adjusted to the final concentration of 45 U/mL with a phosphoric acid buffer was added to the mixture, incubated at 25° C. for 5 minutes, and then the absorbance at 475 nm was measured. The reaction rate (activity) of tyrosinase was calculated from the difference of the absorbance. In order to eliminate the influence of the color of the test sample, the absorbance of a mixture containing a phosphoric acid buffer in place of the tyrosinase solution was measured, thereby correcting the absorbance."}, "[2]": {"tested_on": "Mouse melanoma cells B16F1", "test": "Melanin production inhibition test, B16F1 cells", "assay_type": "cell-based", "conditions": "control = 100; for Melanin production rate: α-MSH 100 ng/mL, 72 hours", "experimental": "Mouse melanoma cells B16F1 were the third or higher passage cultured in Dulbecco's Modified Eagle Medium (D-MEM) containing 10% FBS (manufactured by Nissui Pharmaceutical Co., Ltd.) mixed with 0.5% penicillin-streptomycin (manufactured by Gibco).\nas §1\n(a) Amount of Melanin Production • 960 μL of mouse cells B16F1 cultured in D-MEM culture medium containing 10% FBS was seeded on a 24-well plate to give a final concentration of 1.0×10^5 cells/well (seeding concentration: 1.04×10^5 cells/mL), and cultured for 24 hours in a CO^2 incubator. 20 μL of melanin production hormone (α-MSH) adjusted to a final concentration of 100 ng/mL (addition concentration: 5.0 μg/mL) and 20 μL of test sample adjusted to 10 μg/mL (500 μg/mL) or 100 μg/mL (5000 μg/mL) were added, and cultured for 72 hours. The culture medium was removed, washed with PBS, and then 100 μL of a trypsin EDTA solution was added thereby removing the cells from the plate, and 900 μL of 1N sodium hydroxide aqueous solution was added. The cells were allowed to stand at room temperature for 20 to 24 hours thereby causing cytolysis, and then the melanin content was measured at an absorbance of 475 nm."}}}
{"compound": "O=C1O[C@H]([C@@H](O)CO)C(O)=C1O", "note": "[Ascorbic acid]", "values": [{"measurement": "Melanin production rate after correction of survival rate", "setting": "[1]; 10 μg/mL", "result": 102.74, "unit": "%"}, {"measurement": "Melanin production rate after correction of survival rate", "setting": "[1]; 100 μg/mL", "result": 95.60, "unit": "%"}, {"measurement": "Melanin production rate", "setting": "[1]; 100 μg/mL, α-MSH 100 ng/mL, 72 hours", "result": 94.76, "unit": "%"}]}
{"compound": "O=c1cc(CO)occ1O", "note": "[Kojic acid]", "values": [{"measurement": "Reaction rate of tyrosinase", "setting": "tyrosinase; 10 μg/mL", "result": 42.35, "unit": "%"}, {"measurement": "Reaction rate of tyrosinase", "setting": "tyrosinase; 100 μg/mL", "result": 8.71, "unit": "%"}]}
{"compound": "OC[C@H]1O[C@@H](Oc2ccc(O)cc2)[C@H](O)[C@@H](O)[C@@H]1O", "note": "[β arbutin]", "values": [{"measurement": "Melanin production rate after correction of survival rate", "setting": "[2]; 10 μg/mL", "result": 83.48, "unit": "%"}, {"measurement": "Melanin production rate", "setting": "[2]; 10 μg/mL", "result": 95.41, "unit": "%"}, {"measurement": "Melanin production rate after correction of survival rate", "setting": "[2]; 100 μg/mL", "result": 82.52, "unit": "%"}, {"measurement": "Melanin production rate", "setting": "[2]; 100 μg/mL", "result": 93.76, "unit": "%"}]}
